Experimental data as given in patent publication US8664391B2, “Amide compounds as boosters of antivirals” (Janssen R&D Ireland Ltd, priority 2008, dated 2014).
Where two headings read alike, the source gives them in different places.

Assays:
[1] = tested on: wild-type HIV-1 IIIB strain; assay: Antiviral activity in MT4 LTR-EGFP cellular assay; assay type: cell-based; conditions: Human immunodeficiency virus 1, 72 h; wild-type HIV-1 IIIB, MT4 LTR-EGFP cells, three days after infection; pEC50 = -log10(EC50); read-out: Antiviral Activity IIIB pEC50 (converted)
Experimental: (§1) Assay 1 &2: Antiviral Activity/Toxicity
The compounds of the present invention were tested for antiviral activity in a cellular assay, which was performed according to the following procedure.
The human T-cell line MT4 is engineered with Green Fluorescent Protein (GFP) and an HIV-specific promoter, HIV-1 long terminal repeat (LTR). This cell line is designated MT4 LTR-EGFP, and can be used for the in vitro evaluation of anti-HIV activity of investigational compounds. In HIV-1 infected cells, the Tat protein is produced which upregulates the LTR promotor and finally leads to stimulation of the GFP reporter production, allowing measuring ongoing HIV-infection fluorometrically.
(§2) The ratio of CC50 to EC50 is defined as the selectivity index (SI) and is an indication of the selectivity of the anti-HIV activity of the inhibitor. The ultimate monitoring of HIV-1 infection and cytotoxicity is done using a scanning microscope. Image analysis allows very sensitive detection of viral infection. Measurements are done before cell necrosis, which usually takes place about five days after infection, in particular measurements are performed three days after infection.
A pEC50 value corresponds to −log10(EC50). A pCC50 value corresponds to −log10(CC50).

[2] = Cytotoxicity in mock-infected MT4 CMV-EGFP cells; assay type: cell-based; conditions: human, pCC50 = -log10(CC50), read-out: Toxicity MT4 pCC50 (converted)
From the text: as §1
Analogously, MT4 cells are engineered with GFP and the constitutional cytomegalovirus (CMV) promotor. This cell line is designated MT4 CMV-EGFP, and can be used for the in vitro evaluation of cytotoxicity of investigational compounds. In this cell line, GFP levels are comparably to those of infected MT4 LTR-EGFP cells. Cytotoxic investigational compounds reduce GFP levels of mock-infected MT4 CMV-EGFP cells.
as §2, with “Effective concentration values such as 50% effective concentration (EC50) can be determined and are usually expressed in μM. An EC50 value is defined as the concentration of test compound that reduces the fluorescence of HIV-infected cells by 50%. The 50% cytotoxic concentration (CC50 in μM) is defined as the concentration of test compound that reduces fluorescence of the mock-infected cells by 50%. The ratio” for “The ratio”
Table 2 lists pEC50 values against the wild-type HIV-1 IIIB strain as well as pCC50 values for a selected number of compounds of the invention. A pEC50 value corresponds to −log10(EC50). A pCC50 value corresponds to −log10(CC50).

in vitro = in vitro ADME, human; conditions: human, pH 7.4
From the text: Assay 3: Metabolic Stability of Test Compounds (HLM15′)
Sub-cellular tissue preparations are made according to Gorrod et al. (Xenobiotica, 5, pp. 453-462 (1975)) by centrifugal separation after mechanical homogenization of tissue. Human liver tissue is rinsed in ice-cold 0.1 M Tris-HCl (pH 7.4) buffer to wash excess blood. Tissue is then blotted dry, weighed and chopped coarsely using surgical scissors. The tissue pieces are homogenized in 3 volumes of ice-cold 0.1 M phosphate buffer (pH 7.4) using either a Potter-S (Braun, Italy) equipped with a Teflon pestle or a Sorvall Omni-Mix homogenizer, for 7×10 sec. In both cases, the vessel is kept in/on ice during the homogenization process. Tissue homogenates are centrifuged at 9000×g for 20 min at 4° C. using a Sorvall centrifuge or Beckman Ultracentrifuge. The resulting supernatant can be stored at −80° C. and is designated ‘S9’. The S9 fraction is centrifuged at 100,000×g for 60 min at 4° C. using a Beckman ultracentrifuge. The resulting supernatant is carefully aspirated, aliquoted and designated ‘cytosol’. The pellet is re-suspended in 0.1 M phosphate buffer (pH 7.4) in a final volume of 1 ml per 0.5 g original tissue weight and designated ‘microsomes’. All sub-cellular fractions are aliquoted, immediately frozen in liquid nitrogen and stored at −80° C. until use.
Heat-inactivated (10 min at 95° C.) ‘S9’ or microsomes were used for blank experiments. Reaction mixtures were incubated at 37° C. for 5 min, after which the reaction was started by the addition of 0.8 mM β-NADP. The reaction was incubated for 0 or 15 min. Next, the reaction was stopped by addition of 2 volumes of DMSO (or acetonitrile). Samples were centrifuged (10 min, 900×g) and analyzed by LC-MS.

CYP3A4 = target: T1, CYP3A4 (Homo sapiens, UniProt P08684); assay: CYP450 inhibition, fluorescent substrate assay, CYP3A4; assay type: biochemical; conditions: 10 μM test compound; for inhibition at 10 min, 10 μM: E. coli expressed CYP3A4, pH 7.4, probe DBF (1 μM), substrate DBF 1 μM, read-out: 3A4-DBF % inh.
T1 construct: host or cells: E. coli
Experimental: (§3) Assay 4: CYP450 Inhibition […] This fluorescent molecule was measured using a fluorescent plate reader (Victor2 (Wallac) or Fluoroskan (Labsystems)). Compounds inhibiting the enzymatic reaction will result in a decrease of fluorescent signal. CYP P450 enzymes were prepared in house or commercially bought and stored at −80° C. [table] The assay was performed in black 96 well Costar plates. Test compounds were added to a CYP P450 enzyme solution in the presence of an NADPH generating system. After 5 min of preincubation at 37° C., the freshly prepared, phosphate buffered (pH 7.4) substrate solution was added. Known CYP P450 inhibitors were used as positive controls, negative controls were run without CYP P450 enzyme. For final reaction mixture concentrations, see Table 6. […] Then, the reaction was stopped by the addition of 200 μl acetonitrile, and the fluorescent signal was detected. [table] […] Inhibition of TMC114 Metabolisation

CYP2C9 = CYP2C9 (Homo sapiens, UniProt P11712); assay: CYP450 inhibition, fluorescent substrate assay, CYP2C9; assay type: biochemical; conditions: pH 7.4
Experimental: as §3

CYP2D6 = target: T2, CYP2D6 (Homo sapiens, UniProt P10635); assay: CYP450 inhibition, fluorescent substrate assay, CYP2D6; assay type: biochemical; conditions: E. coli expressed CYP2D6, pH 7.4, probe AMMC (3 μM), 10 μM test compound, substrate AMMC 3 μM, read-out: 2D6-AMMC % inh.
T2 construct: host or cells: E. coli
Experimental: as §3

CYP1A2 = target: T3, CYP1A2 (Homo sapiens, UniProt P05177); assay: CYP450 inhibition, fluorescent substrate assay, CYP1A2; assay type: biochemical; conditions: E. coli expressed CYP1A2, pH 7.4, probe CEC (5 μM), 10 μM test compound, substrate CEC 5 μM, read-out: 1A2-CEC % inh.
T3 construct: host or cells: E. coli
T3 sequence (P05177 1-516): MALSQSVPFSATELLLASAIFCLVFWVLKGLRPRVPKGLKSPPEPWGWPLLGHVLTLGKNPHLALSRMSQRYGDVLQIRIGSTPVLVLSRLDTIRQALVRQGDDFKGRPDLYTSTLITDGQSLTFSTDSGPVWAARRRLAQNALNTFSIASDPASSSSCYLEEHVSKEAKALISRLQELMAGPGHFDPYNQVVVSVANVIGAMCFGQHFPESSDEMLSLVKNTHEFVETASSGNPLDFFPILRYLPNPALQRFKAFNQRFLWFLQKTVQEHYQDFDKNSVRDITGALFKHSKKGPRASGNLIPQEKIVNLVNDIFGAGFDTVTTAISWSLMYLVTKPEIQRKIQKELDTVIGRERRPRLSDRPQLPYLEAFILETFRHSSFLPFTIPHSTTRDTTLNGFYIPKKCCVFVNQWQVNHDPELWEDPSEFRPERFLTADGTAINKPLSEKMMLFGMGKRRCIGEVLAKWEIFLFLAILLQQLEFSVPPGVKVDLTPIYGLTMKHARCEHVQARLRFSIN
Experimental: as §3

CYP2C19 = target: T4, CYP2C19 (Homo sapiens, UniProt P33261); assay: CYP450 inhibition, fluorescent substrate assay, CYP2C19; assay type: biochemical; conditions: E. coli expressed CYP2C19, pH 7.4, probe CEC (25 μM), 10 μM test compound, substrate CEC 25 μM, read-out: 2C19-CEC % inh.
T4 construct: host or cells: E. coli
Experimental: as §3

[3] = E. coli expressed CYP3A4, pH 7.4, probe BFC (150 μM), substrate BFC 150 μM, read-out: 3A4-BFC % inh.
[4] = E. coli expressed CYP3A4, pH 7.4, probe BQ (60 μM), substrate BQ 60 μM, read-out: 3A4-BQ % inh.

Sequence of CYP2C9 (P11712 whole entry): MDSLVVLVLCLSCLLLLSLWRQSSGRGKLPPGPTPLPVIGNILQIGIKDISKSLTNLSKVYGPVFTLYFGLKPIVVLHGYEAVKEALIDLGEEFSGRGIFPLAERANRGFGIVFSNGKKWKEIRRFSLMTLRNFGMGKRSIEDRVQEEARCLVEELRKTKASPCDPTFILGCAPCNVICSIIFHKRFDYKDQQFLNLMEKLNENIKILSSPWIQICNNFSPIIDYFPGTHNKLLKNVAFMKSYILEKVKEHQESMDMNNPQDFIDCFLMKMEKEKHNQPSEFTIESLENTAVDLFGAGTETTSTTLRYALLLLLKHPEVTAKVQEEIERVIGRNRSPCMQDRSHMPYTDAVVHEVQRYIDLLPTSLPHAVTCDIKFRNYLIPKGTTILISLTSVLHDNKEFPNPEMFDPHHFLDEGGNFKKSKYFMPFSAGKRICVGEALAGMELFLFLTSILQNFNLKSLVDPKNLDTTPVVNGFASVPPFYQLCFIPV
T4 sequence (P33261 whole entry): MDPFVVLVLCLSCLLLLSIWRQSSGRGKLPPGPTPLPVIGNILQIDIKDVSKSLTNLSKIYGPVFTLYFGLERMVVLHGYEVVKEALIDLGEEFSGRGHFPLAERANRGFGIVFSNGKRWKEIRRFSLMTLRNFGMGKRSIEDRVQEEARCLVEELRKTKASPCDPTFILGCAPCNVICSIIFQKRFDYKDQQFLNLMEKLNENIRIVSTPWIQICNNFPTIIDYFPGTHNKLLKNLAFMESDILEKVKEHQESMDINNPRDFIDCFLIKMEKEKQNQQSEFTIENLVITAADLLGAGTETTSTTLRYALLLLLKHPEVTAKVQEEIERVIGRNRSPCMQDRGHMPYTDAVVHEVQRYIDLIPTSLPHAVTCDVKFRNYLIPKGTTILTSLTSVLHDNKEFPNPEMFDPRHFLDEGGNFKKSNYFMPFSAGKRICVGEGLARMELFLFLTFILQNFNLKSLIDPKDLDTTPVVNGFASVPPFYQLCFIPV
T2 sequence (P10635 whole entry): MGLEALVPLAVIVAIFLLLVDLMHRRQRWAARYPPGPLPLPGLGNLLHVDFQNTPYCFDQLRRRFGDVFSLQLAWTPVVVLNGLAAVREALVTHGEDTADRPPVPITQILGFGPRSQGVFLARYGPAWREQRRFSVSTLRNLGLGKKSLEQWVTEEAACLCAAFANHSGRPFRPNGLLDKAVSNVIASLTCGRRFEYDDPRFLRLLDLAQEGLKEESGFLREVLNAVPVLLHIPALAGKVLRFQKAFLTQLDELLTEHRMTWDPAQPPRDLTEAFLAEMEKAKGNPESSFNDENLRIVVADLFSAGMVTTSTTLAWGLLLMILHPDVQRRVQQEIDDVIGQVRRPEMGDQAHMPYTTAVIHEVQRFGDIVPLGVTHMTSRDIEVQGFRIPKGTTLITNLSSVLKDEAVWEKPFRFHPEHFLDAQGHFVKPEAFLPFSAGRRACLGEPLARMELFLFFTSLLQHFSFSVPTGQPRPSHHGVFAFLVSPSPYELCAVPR
T1 sequence (P08684 whole entry): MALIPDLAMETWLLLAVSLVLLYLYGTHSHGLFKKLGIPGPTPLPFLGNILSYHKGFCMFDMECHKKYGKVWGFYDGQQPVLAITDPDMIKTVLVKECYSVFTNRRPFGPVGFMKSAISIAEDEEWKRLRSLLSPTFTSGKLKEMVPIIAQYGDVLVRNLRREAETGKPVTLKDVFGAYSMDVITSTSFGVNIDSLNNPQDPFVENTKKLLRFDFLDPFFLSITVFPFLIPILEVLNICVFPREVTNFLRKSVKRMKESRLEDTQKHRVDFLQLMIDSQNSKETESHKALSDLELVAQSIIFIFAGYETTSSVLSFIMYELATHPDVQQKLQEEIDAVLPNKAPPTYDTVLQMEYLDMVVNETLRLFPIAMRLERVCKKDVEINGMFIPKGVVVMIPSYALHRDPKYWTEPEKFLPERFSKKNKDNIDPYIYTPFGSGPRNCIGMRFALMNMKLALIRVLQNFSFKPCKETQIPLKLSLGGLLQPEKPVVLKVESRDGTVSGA

SMILES | EC50 [1] [µM] | CC50 at 3 days [2] [µM] | recovery at 15 min, 5 μM (in vitro) [%] | inhibition at 30 min, 10 μM (CYP3A4; [3]) [%] | inhibition at 30 min, 10 μM (CYP3A4; [4]) [%] | inhibition at 10 min, 10 μM (CYP3A4) [%] | inhibition at 30 min, 10 μM (CYP2C9) [%] | inhibition at 45 min, 10 μM (CYP2D6) [%] | inhibition at 15 min, 10 μM (CYP1A2) [%] | inhibition at 30 min, 10 μM (CYP2C19) [%]
CC(C)CN(C[C@@H](O)[C@H](Cc1ccccc1)NC(=O)OCc1cncs1)C(=O)c1ccncc1 [Compound C8] | > 100 | > 100 | 81 | 91 | 79 | 91 | 95 | 39 | 4 | 76
CC(C)CN(C[C@@H](O)[C@H](Cc1ccccc1)NC(=O)OCc1cncs1)C(=O)c1ccccn1 [Compound C9] | > 100 | > 100 | 55 | 91 | 78 | 89 | 85 | 66 | 4 | 64
Cc1cccc(C(=O)N(CC(C)C)C[C@@H](O)[C@H](Cc2ccccc2)NC(=O)OCc2cncs2)c1 [Compound C10] | > 100 | > 100 | 47 | 95 | 79 | 93 | 96 | 62 | 33 | 92
CC(C)CN(C[C@@H](O)[C@H](Cc1ccccc1)NC(=O)OCc1cncs1)C(=O)c1cccc(C(F)(F)F)c1 [Compound C11] | 38 | 34.7 | 52 | 94 | 78 | 99 | 97 | 86 | 45 | 100
